Assays:
histone deacetylase = test: Detection of change in acetylation of histone in cells with anti-acetylated lysine antibody (cell ELISA); type: cell-based, human; details: Hela cells, 8 hours
Experimental: Hela cells were spread onto a 96-well plate for cell culture by adjusting 2500 cells per well (culture medium was DMEM, 200 μl thereof was used per well), and cultured at 37° C. overnight in a 5% CO2 incubator to tightly attach the cells onto the plate. • 3. Treatment with known Inhibitors for Histone Deacetylase […]
The medium was aspirated from each well without touching the cells, and each well was washed with 200 μl of PBS three times. After washing, 200 μl of 100% methanol cooled at −20° C. in advance was added to each well, left at room temperature for 5 min to fix the cells. […] was completely aspirated and dried.
The anti-acetylated lysine residue antibody was diluted to 0.5 μg/ml with the antibody dilution buffer and 100 μl thereof was added to each washed well, and left at 30° C. for 1 hour (the first reaction). After the first reaction, each well was washed with the washing buffer in the same manner, and 100 μl of goat anti-rabbit Ig (H+L) horse radish peroxidase label (MBL) diluted 2000 folds with the antibody dilution buffer was added to each well, and left at 30° C. for 1 hour (the second reaction). Each well was washed with washing buffer, and 100 μl of horse radish peroxidase substrate solution was added to each well and incubated at 30° C. for 30 min for the coloring reaction. 100 μl of the 1.5 N phosphate solution was added thereto to terminate the coloring reaction. Absorbance at 450 nm was measured using a microtiter plate reader.
As a result, an increase of absorbance was observed depending on the concentration of the deacetylase inhibitors (FIGS. 13 and 14, and Tables 1 and 2). In this measurement, a stronger inhibition of deacetylation of histone in cells accompanies a larger degree of acetylation of histone, and absorbance was increased depending on the increase in the concentration of antigen (an acetylated histone). Therefore, an inhibition of the deacetylase activity correlates to an increase of absorbance.

CMV promoter = CMV promoter activity in pcDNA3-GFP-harboring CHO cells detected using the GFP reporter gene; type: cell-based; details: 8 hours
Experimental: A plasmid vector (pcDNA3-GFP), in which GFP gene was introduced into a multicloning site immediately downstream of CMV promoter in pcDNA3 expression vector for mammalian cells in the forward direction was prepared by the standard method using E. coli. • 2. Introduction of the Plasmid Vector into Cells and Screening of Plasmid-Harboring Cells
pcDNA3-GFP was introduced into CHO cells by the lipofection method, and cultured for 24 hours at 37° C. in a 5% CO2 incubator (4 ml of DMEM was used as a culture medium per 6 cm-plate). Neomycin, an antibiotic, the resistance gene of which is carried on pcDNA3 plasmid, was added to the medium, and cultured for 2 weeks to select cells harboring pcDNA3-GFP. During this screening, the medium was replaced with a new one containing neomycin every four days. • 3. Screening of the Plasmid-Harboring Cells in which the Promoter Activity is Inhibited
The clones of the screened cells were transferred to separate plates and cultured. […] Several clones in which emission of the product of the GFP gene ligated downstream of CMV promoter was weak or was hardly detected were selected.
These cells were spread onto a 96-well plate for cell culture, adjusted to about 2500 cells per well (200 μl of DMEM was used as the culture medium per well), and cultured overnight (about 10 to 20 hours) at 37° C. in a 5% CO2 incubator to tightly attach the cells onto the plate. […]
The amount of GFP proteins expressing in cells in each well of the treated 96-well plate was measured with a fluorescent multiplate reader as change of fluorescence intensity.
As a result, an increase of florescence intensity was observed depending on the concentration of the deacetylase inhibitors (FIGS. 15, 16 and Tables 3 and 4).

Compound: CC(/C=C/C(=O)NO)=C\[C@@H](C)C(=O)c1ccc(N(C)C)cc1 [TSA, trichostatin A]
- Absorbance at 450 nm (histone deacetylase; TSA concentration 0.5 nM): 0.056
- Absorbance at 450 nm (histone deacetylase; TSA concentration 1.95 nM): 0.056
- Absorbance at 450 nm (histone deacetylase; TSA concentration 7.8 nM): 0.041
- Absorbance at 450 nm (histone deacetylase; TSA concentration 31.3 nM): 0.071
- Absorbance at 450 nm (histone deacetylase; TSA concentration 125 nM): 0.095
- Absorbance at 450 nm (histone deacetylase; TSA concentration 500 nM): 0.278
- Absorbance at 450 nm (histone deacetylase; TSA concentration 2000 nM): 0.476
- Relative fluorescence intensity (%) (CMV promoter; TSA concentration 0.5 nM): 2.2%
- Relative fluorescence intensity (%) (CMV promoter; TSA concentration 1.95 nM): 1.8%
- Relative fluorescence intensity (%) (CMV promoter; TSA concentration 7.8 nM): 5.1%
- Relative fluorescence intensity (%) (CMV promoter; TSA concentration 31.3 nM): 12.3%
- Relative fluorescence intensity (%) (CMV promoter; TSA concentration 125 nM): 34.2%
- Relative fluorescence intensity (%) (CMV promoter; TSA concentration 500 nM): 73.1%
- Relative fluorescence intensity (%) (CMV promoter; TSA concentration 2000 nM): 100%

Compound: CCCC(=O)O [S. B., butyric acid]
- Absorbance at 450 nm (histone deacetylase; S. B. concentration 0.012 mM): 0.091
- Absorbance at 450 nm (histone deacetylase; S. B. concentration 0.049 mM): 0.077
- Absorbance at 450 nm (histone deacetylase; S. B. concentration 0.195 mM): 0.097
- Absorbance at 450 nm (histone deacetylase; S. B. concentration 0.78 mM): 0.136
- Absorbance at 450 nm (histone deacetylase; S. B. concentration 3.13 mM): 0.306
- Absorbance at 450 nm (histone deacetylase; S. B. concentration 12.5 mM): 0.551
- Absorbance at 450 nm (histone deacetylase; S. B. concentration 50 mM): 0.545
- Relative fluorescence intensity (%) (CMV promoter; S. B. concentration 0.012 mM): 8.5%
- Relative fluorescence intensity (%) (CMV promoter; S. B. concentration 0.049 mM): 7.8%
- Relative fluorescence intensity (%) (CMV promoter; S. B. concentration 0.195 mM): 13.3%
- Relative fluorescence intensity (%) (CMV promoter; S. B. concentration 0.78 mM): 15.7%
- Relative fluorescence intensity (%) (CMV promoter; S. B. concentration 3.13 mM): 50.3%
- Relative fluorescence intensity (%) (CMV promoter; S. B. concentration 12.5 mM): 98.5%
- Relative fluorescence intensity (%) (CMV promoter; S. B. concentration 50 mM): 100%

Reference: patent US6884597B1, “Method for detecting acetyltransferase and deacetylase activities and method for screening inhibitors or enhancers of these enzymes” (Medical & Biological Laboratories, Co., Ltd., priority 1998, dated 2005)
